Earlier results as cited in PMC11711049 (Cancer Science, 2024).

Tests used:
cholangiocarcinoma = details: first‐line, patients with cholangiocarcinoma; cited from earlier work
[1] = tested on: cholangiocarcinoma with an FGFR2 gene fusion or other rearrangement; details: cholangiocarcinoma patients; cited from earlier work

Compound	ORR (cholangiocarcinoma) [%]	median OS (cholangiocarcinoma) [months]	median PFS (cholangiocarcinoma) [months]	median OS [1] [months]	median PFS [1] [months]	response rate / ORR [1] [%]
gemcitabine and cisplatin	26	11.7	8.0			
CCN1C(=O)N(c2c(F)c(OC)cc(OC)c2F)Cc2cnc3[nH]c(CN4CCOCC4)cc3c21 [pemigatinib, Pemigatinib]				21.1	6.9	35.5
